“Also recorded” adds a separate entry of the source. Where two headings read alike, the source gives them in different places.
Assays:
[1] = human, 97.6 µM
in vitro = conditions: human, plasma
[2] = By-product toxicity test (metabolic byproducts in the human body); conditions: for Toxicity: toxicity of the metabolic by-products in human body; for Metabolic by-products in human body: by the metabolic pathways of the compounds in the human body
[3] = High temperature stability study of compounds (60° C.); type: physicochemical; conditions: in the dark; for Ketorolac (%): related substance
Protocol: Test protocol: the compounds prepared in the present disclosure were placed in a colorless and transparent vial, placed in the dark at a high temperature (60° C.), and were sampled for day 0, day 5 and day 10, respectively, and the purity of the compounds and the change of the related substance (ketorolac) were determined.

[4] = Enzymolysis kinetics experiment of compounds in plasma; conditions: for half-life at 97.6 µM: human, plasma; for Content of the compound %: 37° C.
[5] = cited from earlier work
[6] = cited from earlier work; remark: listed apart in the source
[7] = oral administration and intramuscular injection

Structure (SMILES)	Content of ketorolac % ([1]; 0 min)	Content of the compound % ([1]; 0 min)	Content of ketorolac % ([1]; 15 min)	Content of the compound % ([1]; 15 min)	Content of ketorolac % ([1]; 30 min)	Content of the compound % ([1]; 30 min)	Content of ketorolac % ([1]; 60 min)	Content of the compound % ([1]; 60 min)	half-life at 97.6 µM (in vitro)	Content of ketorolac % ([1]; 120 min)	Content of the compound % ([1]; 120 min)	Total main peak purity (%) ([3]; Day 0)	Total main peak purity (%) ([3]; Day 5)	Total main peak purity (%) ([3]; Day 10)	Ketorolac (%) ([3]; Day 0)	Ketorolac (%) ([3]; Day 5)	Ketorolac (%) ([3]; Day 10)	Toxicity [2]	Metabolic by-products in human body [2]	other results
CCC(OC(=O)OC(C)C)OC(=O)C1CCn2c(C(=O)c3ccccc3)ccc21 (centres unmarked) [N16]	0%	100 ± 4.001%	9.847 ± 2.479%	82.710 ± 1.909%	28.653 ± 0.277%	65.987 ± 0.506%	56.793 ± 2.096%	35.437 ± 1.960%	31.6 min	70.443 ± 4.274%	7.047 ± 0.374%	97.33%	96.50%	96.16%	0.05%	0.07%	0.07%			
CC(OC(=O)C1CCn2c(C(=O)c3ccccc3)ccc21)OC(=O)C1CCn2c(C(=O)c3ccccc3)ccc21 (centres unmarked) [N22]																		relatively low toxicity of byproducts	Acetaldehyde	metabolic rates (in words) ([4]; summary statement, metabolized in a human body): slow metabolic rates
CC(C)OC(=O)OC(C)OC(=O)C1CCn2c(C(=O)c3ccccc3)ccc21 (centres unmarked) [N2]	1.050 ± 0.079%	98.950 ± 3.765%	8.860 ± 0.426%	88.103 ± 2.289%	20.993 ± 0.561%	72.813 ± 2.707%	34.590 ± 1.381%	47.510 ± 1.739%	38.6 min	59.790 ± 2.019%	12.573 ± 0.260%	95.58%	95.21%	94.82%	0.03%	0.04%	0.05%	low toxicity of byproducts; also recorded: relatively low	Acetaldehyde and isopropyl alcohol	
CC(=O)OC(C)OC(=O)C(C)c1ccc(-c2ccccc2)c(F)c1 (centres unmarked) [FPA, flurbiprofen axetil, reference compound]									40.8 min											degradation / metabolic rate in human plasma (in words) ([4]; human plasma, up to 120 min): could be metabolized faster
CCOC(=O)OC(CC)OC(=O)C1CCn2c(C(=O)c3ccccc3)ccc21 (centres unmarked) [N15]	1.727 ± 1.502%	99.560 ± 2.324%	23.933 ± 1.119%	76.800 ± 2.423%	50.917 ± 1.868%	46.680 ± 2.229%	83.957 ± 3.139%	12.760 ± 1.133%		96.910 ± 3.848%	0.893 ± 0.051%	96.30%	95.87%	95.59%	0.08%	0.09%	0.14%			half-life at 97.6 µM [4]: 16.9 min
CC(OC(=O)C(C)C)OC(=O)C1CCn2c(C(=O)c3ccccc3)ccc21 (centres unmarked) [N6]												91.56%	90.94%	90.22%	0.14%	0.13%	0.17%		Acetaldehyde and isobutyric acid	
O=C(c1ccccc1)c1ccc2n1CCC2C(=O)O (racemic) [Ketorolac, (±)-5-benzoyl-2,3-dihydro-1H-pyrrolizine-1-carboxylic acid]																				elimination half-life ([5]; elderly patients): 360 to 420 min; binding rate to plasma protein ([5]; in vivo): more than 99%; distribution volume ([5]; in vivo): 0.1 to 0.3 L/kg; elimination half-life ([5]; in vivo): 240 to 360 min; original drug and metabolites excreted with the urine ([5]; in vivo): about 90%; total clearance rate ([5]; in vivo): 0.5 mL/min/kg; effective treatment plasma concentration [5, 7]: 0.3 to 5 µg/mL; peak concentration time of the plasma concentration [5, 7]: 20 to 60 min; elimination half-life ([5]; renal insufficiency patients): 540 to 600 min; analgesic activity relative to aspirin ([6]; times that of aspirin): 800 times; analgesic activity relative to indomethacin ([6]; times that of indomethacin): 60 times; analgesic activity relative to morphine ([6]; times that of morphine): 0.4 times
CCCCCCC(=O)OC(C)OC(=O)C1CCn2c(C(=O)c3ccccc3)ccc21 (centres unmarked) [N27]																		low	Acetaldehyde and n-heptanoic acid	Content of the compound % ([4]; human plasma, 1 min): 100%; Content of the compound % ([4]; human plasma, 15 min): 100%; Content of the compound % ([4]; human plasma, 30 min): 90.63 ± 1.81%; Content of the compound % ([4]; human plasma, 60 min): 63.89 ± 1.20%; Content of the compound % ([4]; human plasma, 120 min): 35.75 ± 1.46%; half-life at 97.6 µM [4]: 73.9 min
CC(=O)OC(OC(=O)C1CCn2c(C(=O)c3ccccc3)ccc21)C(C)C (centres unmarked) [N5]												97.46%	97.62%	97.37%	0.14%	0.15%	0.17%		Isobutyraldehyde and acetic acid	

The next lines start with results.

Content of ketorolac % ([1]; 0 min)	Content of the compound % ([1]; 0 min)	Content of ketorolac % ([1]; 15 min)	Content of the compound % ([1]; 15 min)	Content of ketorolac % ([1]; 30 min)	Content of the compound % ([1]; 30 min)	Content of ketorolac % ([1]; 60 min)	Content of the compound % ([1]; 60 min)	half-life at 97.6 µM (in vitro)	Content of ketorolac % ([1]; 120 min)	Content of the compound % ([1]; 120 min)	Total main peak purity (%) ([3]; Day 0)	Total main peak purity (%) ([3]; Day 5)	Total main peak purity (%) ([3]; Day 10)	Ketorolac (%) ([3]; Day 0)	Ketorolac (%) ([3]; Day 5)	Ketorolac (%) ([3]; Day 10)	Structure (SMILES)	Toxicity [2]	Metabolic by-products in human body [2]	other results
0%	99.700 ± 2.928%	0%	99.813 ± 4.881%	0%	89.807 ± 2.538%	2.270 ± 0.328%	83.490 ± 9.087%	347 min									CC(C)OC(=O)C1CCn2c(C(=O)c3ccccc3)ccc21 (centres unmarked) [N11, reference compound]			
		0%	100%	3.89 ± 0.61%	95.48 ± 1.56%	8.60 ± 0.33%	89.20 ± 1.67%	177 min	24.34 ± 0.90%	68.99 ± 1.45%							CCCCCCCCOC(=O)OC(C)OC(=O)C1CCn2c(C(=O)c3ccccc3)ccc21 (centres unmarked) [N26]	n-octanol is more toxic		Content of ketorolac % ([1]; 1 min): 0%; Content of the compound % ([1]; 1 min): 100%
2.033 ± 0.342%	97.967 ± 6.878%	34.203 ± 3.165%	56.277 ± 3.890%	53.297 ± 1.296%	25.590 ± 1.131%	76.623 ± 10.483%	5.997 ± 0.976%	14.8 min	87.973 ± 4.045%	0%	93.84%	93.59%	93.36%	0.03%	0.07%	0.07%	CCOC(=O)OC(C)OC(=O)C1CCn2c(C(=O)c3ccccc3)ccc21 (centres unmarked) [N12]	low toxicity of byproducts; also recorded: relatively low	Acetaldehyde and acetic acid	
											96.36%	94.28%	94.41%	0.05%	0.23%	0.37%	CC(OC(=O)OC1CCCCC1)OC(=O)C1CCn2c(C(=O)c3ccccc3)ccc21 (centres unmarked) [N10]	relatively low toxicity of byproducts	Acetaldehyde and cyclohexanol	
0%	100 ± 1.782%	19.140 ± 1.467%	69.713 ± 6.985%	36.277 ± 3.301%	42.467 ± 2.983%	53.130 ± 2.171%	8.777 ± 0.560%	16.9 min	65.997 ± 3.446%	0%	93.15%	93.30%	92.34%	0.18%	0.42%	0.96%	CCC(=O)OC(CC)OC(=O)C1CCn2c(C(=O)c3ccccc3)ccc21 (centres unmarked) [N8]	low toxicity of byproducts; also recorded: relatively low		
